According to patent US11185516B2 (Laboratorios Silanes S.A. DE C.V., priority 2016, dated 2021):
Where a name gives a salt, the structure may show the parent alone.

Experiments:
IRS2−/− (KO) mice = test: Fasting glycemia and insulinemia in female IRS2−/− mice; assay type: in vivo, mouse; conditions: 4 weeks
Text: Insulin resistance characterizes type 2 diabetes, obesity, and the metabolic syndrome. Thus, insulin sensitivity is a major therapeutic objective for these metabolic diseases. Insulin receptor substrate (IRS) proteins regulate the physiological actions of insulin upon binding to the receptor. Specific deletion of IRS2 in mice produces diabetes due to a developmental reduction of the pancreatic β-cell mass and the inability of existing β-cells to expand in response to peripheral insulin resistance. Additionally, IRS2-deficiency in mice causes hepatic insulin resistance concurrent with failed suppression of hepatic glucose production. While male IRS2−/− mice often die of diabetic complications by 12 weeks of age, females IRS2−/− mice develop a milder form of diabetes and many live up to 6 months. The observation that female IRS2−/− mice eat more than controls led to the discovery that this molecule is critical for hypothalamic regulation of food intake.
The mean glycemic values are represented per group (n=3) pre-treatment (black bars) and post-treatment (gray bars) along with their standard deviations. […] The fasting serum insulin levels taken pre-treatment (black bars) and post-treatment (gray bars) were determined using a kit (Millipore), following the manufacturer's instructions. Mean values and standard deviations are presented for each group (n=3) (FIG. 12D).
Due to peripheral resistance to insulin, the IRS2−/− mice also develop hyperinsulinemia.

[1] = test system: IRS2 knockout mice (KO IRS2); test: Serum triglycerides in IRS2 knockout mice; assay type: in vivo, mouse; conditions: 100 mg/kg/day, 8 weeks, fasting
Procedure: At the 8-week treatment time point, there were 8 mice in each of the WT groups, 6 mice in the KO IRS2 untreated control group, 7 mice in the KO IRS2 SLN1 treated group, and 8 mice in the KO SLN2 treated group. Blood was collected at the time of sacrifice and used to measure TG under fasting conditions. […] Statistical differences between the experimental groups shown in FIG. 21 were assessed by Student's T test. P value of <0.05 is indicated by *.

C2C12 myotubes = test: Glucose concentration of C2C12 myotube cultures in M1 macrophage conditioned media; assay type: cell-based, mouse; conditions: macrophages treated with 10 mM for 2 h, then LPS/IFNγ 16 h
Procedure: There is considerable evidence showing that inflammation and hyperglycemia are interconnected: inflammation induces hyperglycemia and reciprocally hyperglycemia induces inflammation with the molecular bases not elucidated yet. To explore the participation of GPBP, glucose intake under normoglycemic conditions with conditioned media generated by macrophages differentiated to a proinflammatory M1 phenotype was monitored.
[…]. The glucose concentration of the myotube cultures was determined at different times with Glucocard (Arkray). The controls used were the C2C12 cultured with media conditioned with no stimulated macrophages (Cells) or with M1 conditioned media (M1). The initial glucose levels (time 0) were used as a reference (100%) in each series.

[2] = test system: IRS2 knockout mice (KO IRS2); test: Body weight in IRS2 knockout mice; assay type: in vivo, mouse; conditions: 100 mg/kg/day, 8 weeks
Procedure: Body weight of the mice was measured prior to the onset of treatment, at 4 weeks after treatment, and at 8 weeks after treatment. There were 8 mice in each group at the pre-treatment and 4-week treatment time points. […] Statistical differences between the experimental groups shown in FIG. 20 were assessed by Student's T test. P value of <0.05 is indicated by *.

C57BL/6 mice = test: Glycemia and dietary intake in C57BL/6 mice; assay type: in vivo, mouse; conditions: 1 week
Text: The mean glycemic values at the beginning and end of the experiment are represented for each group (n=3) with their standard deviations.

GLUT4 = GLUT4 translocation (FIG. 19A)
AS160 = test: In vitro AS160 phosphorylation in the presence of GPBP, AMPK and AKT; assay type: biochemical; conditions: 5 mM, with FLAG-GPBP, AKT, AMPK
Procedure: The reactions (25 μL) were carried out at 30° C., and stirred (350 rpm) for 15 min. Then, they were stopped with a reducing loading buffer, heated (95° C., 2 min), and analyzed using electrophoresis, electrotransfer, and autoradiography.

[3] = test system: proIL-1β, TNFα, iNOS, IL-6, MCP-1 and IL-12; test: Inflammation marker expression in palmitate-stimulated L1 adipocytes (RT-qPCR); assay type: cell-based; conditions: 10 mM, palmitate 500 μM, 24 h
Procedure: Palmitate is a saturated fatty acid that simulates an experimental obese state. It can be used as a pro-inflammatory stimulant for cytokines such as proIL-1β, TNFα, iNOS, IL-6, MCP-1 and IL-12.
Next, the relative expression of inflammation markers was analyzed by RT and qPCR using HPRT-1 as a normalizer and the untreated cell expression levels as a reference (for MCP-1 and IL-12) or those treated palmitate. After the treatments, culture media were collected and subsequently analyzed, cells were washed with PBS, and RNA was extracted (illustra RNAspin Mini, GE Healthcare) and reverse transcribed (High Capacity cDNA Reverse Transcription Kit, Life Technologies). The expression of the genes that were the object of the study was analyzed by qPCR using specific probes (TaqMan® Gene Expression Assays, Life Technologies). The relative expression (RQ), represented in the figure, was calculated by the ΔΔCt method.

VAPA and VAMPs = test: Colocalization of VAPA and VAMPs (FIG. 18)
GPBP = biological target: T1, GPBP (Homo sapiens, UniProt Q9Y5P4); conditions: 1 mM, 24 h
T1 sequence (Q9Y5P4 1-624): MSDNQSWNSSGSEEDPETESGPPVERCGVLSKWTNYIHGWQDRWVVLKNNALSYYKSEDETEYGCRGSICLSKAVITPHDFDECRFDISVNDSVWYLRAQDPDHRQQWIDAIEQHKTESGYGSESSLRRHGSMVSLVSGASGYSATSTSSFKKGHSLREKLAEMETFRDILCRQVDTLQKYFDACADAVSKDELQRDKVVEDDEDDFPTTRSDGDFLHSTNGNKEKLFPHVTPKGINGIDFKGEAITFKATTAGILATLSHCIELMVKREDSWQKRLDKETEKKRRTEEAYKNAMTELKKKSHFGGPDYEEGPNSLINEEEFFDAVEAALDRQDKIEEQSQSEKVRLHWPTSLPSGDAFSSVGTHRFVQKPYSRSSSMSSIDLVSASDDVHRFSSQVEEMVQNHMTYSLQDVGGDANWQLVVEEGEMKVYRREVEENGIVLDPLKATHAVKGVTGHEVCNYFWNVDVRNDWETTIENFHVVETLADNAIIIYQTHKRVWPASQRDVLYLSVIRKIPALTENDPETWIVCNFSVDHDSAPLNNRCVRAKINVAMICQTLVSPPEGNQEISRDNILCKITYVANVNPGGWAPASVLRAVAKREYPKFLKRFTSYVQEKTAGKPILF

clinical [4] = conditions: both, human, in vivo, oral
[5] = Stage B, ANOVA of repeated measures
clinical [6] = conditions: both, human, in vivo

Row | high molecular weight GPBP aggregates (GPBP) | AUC (clinical [4]) | AUC (clinical [4]; 1240 mg) | AUC (clinical [6]) | Structure (SMILES) | fasting glycemia post-treatment (IRS2−/− (KO) mice; 100 mg/kg/day with food, 10-12 weeks old) | fasting insulin levels (IRS2−/− (KO) mice; 100 mg/kg/day) | serum triglycerides compared to untreated KO IRS2 [1] | glucose levels of myotube cultures (hyperglycemic levels) (C2C12 myotubes) | average body weight, post- vs pre-treatment [2] | glycemia, end vs beginning (C57BL/6 mice; 100 mg/kg/day mixed with solid food, n=3) | food intake compared to untreated mice (C57BL/6 mice; 100 mg/kg/day) | GLUT4 translocation (GLUT4) | phosphorylation of AS160 (AS160) | inflammatory response of palmitate-stimulated adipocytes [3] | colocalization of VAPA and VAMPS (VAPA and VAMPs) | colocalization of VAPA and VAMPS, comparison SLN1 vs SLN2 (VAPA and VAMPs) | Ln AUCt, Ln AUC12 and Ln AUC0, differences attributed to formula, period and sequence factors [5] | Ln Cmax, differences attributed to formula, period and sequence factors [5] | Ln Cmin, differences attributed to formula, period and sequence factors [5]
1 | not present | – | – | – | CN(C)C(=N)N=C(N)N [Metformin hydrochloride, metformin hydrochloride, reference compound] | slightly lower, though not statistically significant | higher than at the initiation of the experiment | lower | slowed down the progression towards hyperglycemia | not significantly different | significantly reduced glycemia | food intake was greater | failed to do so | inhibited AS160 phosphorylation | attenuated the inflammatory response | reduced colocalization | greater reduction effect | – | – | –
2 | – | 119 to 134 µg·h/mL | 76.1 to 92.5 µg·h/mL | 92.4 to 109 µg·h/mL | CN(C)C(=N)N=C(N)N [Metformin, metformin] | – | – | – | – | – | – | – | – | – | – | – | – | did not show statistically significant differences | did not show statistically significant differences | did not show statistically significant differences
